Assay results taken from PMC9814687, “Controlling oncogenic KRAS signaling pathways with a Palladium-responsive peptide” (Communications Chemistry, 2022).

Assays:
A549 cells = experiment: Cell internalization by fluorescence microscopy; assay type: cell-based; conditions: for cellular internalization (intracellular TMR fluorescence), in words: A549 cells, 10 µM, 30 min at 37 °C, DMEM with 5% FBS, washed with PBS, fluorescence microscopy
Procedure: (§1) All steps were performed on a sterile clean bench Telstar AV-100 at rt. Solutions stored in a fridge were warmed beforehand in a water bath (37 °C). Unless otherwise specified, all incubations were performed in DMEM containing 5% of fetal bovine serum (FBS-DMEM). Cell Culture: A549 cell line was cultured in DMEM (Dulbecco´s modified Eagle´s medium), 5 mM glutamine, penicillin (100 units/mL) and streptomycin (100 units/mL), all from Invitrogen. Proliferating cultures were maintained in a 5% CO2 humidified incubator at 37 °C. For all the experiments, cells were seeded in the corresponding well at the indicated concentration 2 days before treatment. A549 cells were seeded on glass-bottom plates 48 h (150.000 cell/ml) before treatment. […] (10 µM) were added. The metallopeptide was made just before the addition to cells by pre-incubating with metal complexes (1:1) in water for 10 min. After 30 min of incubation with cells, these were washed twice with PBS and replaced with fresh FBS-DMEM to observe under the microscope with adequate filters. Digital pictures of the different samples were taken under identical conditions of gain and exposure. A549 cells were seeded on glass-bottom plates (150.000 cell/ml) 48 h before treatment. […] After two washes with PBS, the cells were lysed in Laemmli buffer containing Tris pH 6,8 1 M, Glycerol, SDS, Bromophenol Blue, and β-mercaptoethanol, and heated at 95 °C for 10 min. The samples were separated by SDS-12.5% polyacrylamide gel and transferred to nitrocellulose membrane, to probed by Western blotting. […] The visualization was performed with ChemiDoc MP imaging system by Biorad, and the processing of the images and densitometry quantification was carried out with ImageLab program.
All images were obtained with an Andor Zyla mounted on a Nikon TiE. LED excitation wavelength 550 nm. Filter cube TRITC-B-000 (Semrock): BP 543/22 nm, […] 593/40 nm, and DM 562 nm. Images were further processed with Image J.

[1] = system: phospho-ERK1/2 in serum-starved A549 cells; experiment: Inhibition of ERK1/2 phosphorylation (Western blot, densitometry); assay type: cell-based; conditions: 4 h, Western blot with pERK antibodies
Procedure: as §1

[2] = Circular dichroism (α-helical content); assay type: physicochemical; conditions: 10% TFE, 25 °C
Procedure: Circular Dichroism was measured on a Jasco-715 coupled with a thermostat Nestlab RTE-111 using a 2 mm Hellma cuvette at 25 °C and the following settings: Acquisition range, 300-195 nm; band width, 2.0 nm; resolution, 0.2 nm; accumulation, 5 scans; sensitivity, 10 mdeg; response time, 0.25 s; speed, 100 nm/min. The spectra are the average of 5 scans and were processed using the “smooth” macro in the program KaleidaGraph (v 3.5 by Synergy Software).
Circular Dichroism. Circular Dichroism was measured on a Jasco-715 coupled with a thermostat Nestlab RTE-111 using a 2 mm Hellma cuvette at 25 °C and the following settings: Acquisition range, 300 -195 nm; band width, 2.0 nm; resolution, 0.2 nm; accumulation, 5 scans; sensitivity, 10 mdeg; response time, 0.25 s; speed, 100 nm/min. The spectra are the average of 5 scans and were processed using the “smooth” macro in the program KaleidaGraph (v 3.5 by Synergy Software).
Fig S3. Left: CD titration experiment.
5 and 10 equivalents of cis-PdCl2(en). The experiments were carried out in 10 mM phosphate buffer pH 7.5, 100 mM of NaCl and 10% TFE, 25 °C. Mean residue molar ellipticity ([ Θ]MRE) was calculated considering the peptide as an 18-mer.
(1 picture or pasted object on this page, not shown here)

HeLa cells = experiment: MTT toxicity assay; conditions: long incubation (24 h), up to 100 µM
Procedure: cells as follows: 100,000 cells per well were seeded in 96 well plates two days before treatment with different
concentrations of the peptides/metal. After 24 h of incubation, HEPES containing 3-(4,5-dimethylthiazol-2-
yl)-2,5-diphenyl tetrazolium bromide (MTT) was added to the cell culture medium to a final concentration of
0.5 mg/ml. Cells were then incubated for 4 h to allow the formation of formazan precipitates by metabolically
active cells. A detergent solution of 10% SDS (sodium dodecyl sulphate) and 0.01 M HCl was then added,
and the plate was incubated overnight at room temperature to allow the solubilization of the precipitates.
The quantity of formazan in each well (directly proportional to the number of viable cells) was measured by
recording changes in absorbance at 570 nm in a microtiter plate reading spectrophotometer (Tecan Infinite
Toxicity assay. HeLa cells were incubated with peptide, metallopeptide and palladium at
different concentrations, for 24 h at 37 °C. Then, the cells were washed two time with PBS before carry ing
out the MTT assay. Data are mean +/- SEM for experimental repeated in two independent times.

| α-helical content ([2]; from CD band at 222 nm, 20 µM peptide + 1 eq. cis-PdCl2(en), 10 mM phosphate pH 7.5, 100 mM NaCl) | mean residue molar ellipticity at 222 nm ([2]; CD, 20 µM peptide, 10 mM phosphate buffer pH 7.5, 100 mM NaCl, calculated for an 18-mer, metallopeptide 30 min after 1 eq. cis-PdCl2(en)) | Molecule | cellular internalization (intracellular TMR fluorescence), in words (A549 cells) | cell localization by fluorescence microscopy (A549 cells; cells incubated with the metallopeptide, authors' reply to reviewers) | levels of ERK phosphorylation, in words [1] | cell viability in MTT assay, in words (HeLa cells) |
| --- | --- | --- | --- | --- | --- | --- |
| about 22% | – | CC[C@H](C)[C@H](NC(=O)CNC(=O)[C@H](Cc1ccccc1)NC(=O)[C@H](Cc1ccccc1)NC(=O)[C@H](CCCNC(=N)N)NC(=O)[C@H](CCCNC(=N)N)NC(=O)CCCCCNC(=O)c1ccc2c(c1)C(=O)OC21c2ccc(N(C)C)cc2Oc2cc(N(C)C)ccc21)C(=O)N[C@@H](Cc1c[nH]cn1)C(=O)N[C@@H](CC(C)C)C(=O)N[C@H](C(=O)N[C@@H](CC(N)=O)C(=O)N[C@@H](Cc1c[nH]cn1)C(=O)N[C@@H](CC(C)C)C(=O)N[C@@H](CCCCN)C(=O)N[C@H](C(=O)N[C@@H](CCC(=O)O)C(=O)N[C@@H](CCC(=O)O)C(=O)NCC(=O)N[C@@H](CC(N)=O)C(N)=O)[C@@H](C)O)[C@@H](C)O [αH-His2[Pd]] | intense intracellular fluorescence signal | endosomal localization | significant decrease | – |
| – | ≈ −2200 deg cm^2 dmol^−1 | TMR-Ahx-RRFFGIHLTNHLKTEEGN [αH-His2] | rather poor internalization | – | failed to induce changes | – |
| – | – | NCCN.[Cl][Pd][Cl] [cis-PdCl2(en), reference compound] | – | – | failed to induce changes | remains high |
